Strand notation (5' to 3'): a small letter for the sugar, then the base; units joined by * are phosphorothioate-linked, units joined directly phosphodiester-linked; [ ] holds rarer units or linkages, { } end groups; capitals alone tell only the bases. e = 2'-O-(2-methoxyethyl) (MOE); k = constrained ethyl (cEt); [5mC] = 5-methylcytosine; d = 2'-deoxy (DNA)
Tested on: human PKK mRNA
Test: Antisense inhibition of human PKK mRNA in HepaRG cells, 1,000 nM, MOE/deoxy/cEt oligonucleotides (Example 3)
Assay type: cell-based
Outline: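 HepaRG cells at 20,000 per well electroporated with 1,000 nM 16-mer MOE/cEt/deoxy gapmers (phosphorothioate, 5-methylcytosine). After about 24 h, PKK mRNA measured by qRT-PCR with primer probe set RTS3454, normalized to RIBOGREEN total RNA. Reported as percent inhibition versus untreated cells.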

[1] = HepaRG cells, electroporation with 1,000 nM antisense oligonucleotide, approximately 24 hours, primer probe set RTS3454, relative to untreated control cells, experiment of Table 24
[2] = HepaRG cells, electroporation with 1,000 nM antisense oligonucleotide, approximately 24 hours, primer probe set RTS3454, relative to untreated control cells, experiment of Table 23
[3] = HepaRG cells, 1,000 nM antisense oligonucleotide, Table 29
[4] = HepaRG cells, electroporation with 1,000 nM antisense oligonucleotide, approx. 24 hours, PKK mRNA by RT-PCR (RTS3454), relative to untreated control cells, Table 25 experiment
[5] = Table 30, human PKK mRNA, HepaRG cells, 1,000 nM antisense oligonucleotide
[6] = Table 28, HepaRG cells, 1,000 nM antisense oligonucleotide, human PKK mRNA
[7] = Table 20, HepaRG cells, electroporation with 1,000 nM antisense oligonucleotide, approximately 24 hours, PKK mRNA by RT-PCR (RTS3454), relative to untreated control cells
[8] = Table 22 experiment, HepaRG cells, electroporation with 1,000 nM antisense oligonucleotide, approx. 24 hours, PKK mRNA by RT-PCR (RTS3454), relative to untreated control cells
[9] = Table 21 experiment, HepaRG cells, electroporation with 1,000 nM antisense oligonucleotide, approx. 24 hours, PKK mRNA by RT-PCR (RTS3454), relative to untreated control cells
[10] = Table 27, HepaRG cells, 1,000 nM antisense oligonucleotide, human PKK mRNA
[11] = PKK mRNA, HepaRG cells, 1,000 nM antisense oligonucleotide, Table 31
[12] = HepaRG cells, electroporation with 1,000 nM antisense oligonucleotide, approx. 24 hours, PKK mRNA by RT-PCR (RTS3454), relative to untreated control cells, Table 26 experiment

**Q.** “547999 (antisense e[5mC]*e[5mC]*kT*dT*dG*dT*dG*dT*d[5mC]*d[5mC]*d[5mC]*dA*dT*kA*k[5mC]*eG) [compound 547999]” was tested. Which “% inhibition” value [1] did it give?
**A.** 50%

**Q.** With “547992 (antisense e[5mC]*e[5mC]*kT*dT*dA*d[5mC]*dA*dG*dT*d[5mC]*dT*dT*d[5mC]*kT*kG*eG) [compound 547992]” as the substance, how does the “% inhibition” value [2] read?
**A.** 17%

**Q.** With “548611 (antisense eG*e[5mC]*kG*dG*dG*dA*dT*d[5mC]*dG*dG*dT*dG*dG*kT*kG*eG) [compound 548611]” as the substance, how does the “% inhibition” value [3] read?
**A.** 7%

**Q.** For “548212 (eA*eG*k[5mC]*d[5mC]*d[5mC]*dA*d[5mC]*d[5mC]*dA*dA*d[5mC]*dA*dA*kT*k[5mC]*eT; antisense) [compound 548212]”, which “% inhibition” value [4] is on record?
**A.** 44%

**Q.** For “548419 (antisense e[5mC]*e[5mC]*kT*dA*dT*dA*dT*d[5mC]*dA*d[5mC]*dT*dG*dT*k[5mC]*k[5mC]*eT) [compound 548419]”, which “% inhibition” value [5] is on record?
**A.** 52%

**Q.** “548476 (eG*e[5mC]*kA*dA*dA*dT*d[5mC]*d[5mC]*dT*dT*d[5mC]*d[5mC]*dA*kG*k[5mC]*eA; antisense) [compound 548476]” was tested. Which “% inhibition” value [6] did it give?
**A.** 27%

**Q.** With “548461 (e[5mC]*e[5mC]*kT*dA*dT*dA*dT*d[5mC]*dA*d[5mC]*dT*dG*dT*kA*kA*e[5mC]; antisense) [compound 548461]” as the substance, how does the “% inhibition” value [6] read?
**A.** 0%

**Q.** Which “% inhibition” value [2] does the source give for “547956 (eG*eT*kT*dA*dA*dA*dA*dG*dG*d[5mC]*dT*dA*dT*kA*kT*e[5mC]; antisense) [compound 547956]” here?
**A.** 13%

**Q.** For “548012 (eT*e[5mC]*k[5mC]*d[5mC]*d[5mC]*dA*dG*dT*dG*dT*dT*dA*d[5mC]*kA*k[5mC]*eA; antisense) [compound 548012]”, which “% inhibition” value [1] is on record?
**A.** 3%

**Q.** For “547864 (antisense eT*eT*kG*dA*d[5mC]*dT*d[5mC]*d[5mC]*dT*d[5mC]*dT*d[5mC]*dA*kT*kA*eT) [compound 547864]”, which “% inhibition” value [7] is on record?
**A.** 53%

**Q.** And the “% inhibition” value [8]?
**A.** 73%

**Q.** “548187 (e[5mC]*eA*kT*d[5mC]*d[5mC]*dT*dA*dT*d[5mC]*d[5mC]*dG*dT*dG*kT*kT*e[5mC]; antisense) [compound 548187]” was tested. Which “% inhibition” value [4] did it give?
**A.** 33%

**Q.** Which “% inhibition” value [7] does the source give for “547899 (eG*eT*kA*d[5mC]*dT*dT*dT*dA*dA*dT*dA*dG*dG*k[5mC]*kA*eA; antisense) [compound 547899]” here?
**A.** 49%

**Q.** And the “% inhibition” value [8]?
**A.** 68%

**Q.** How did the “% inhibition” value [9] turn out when “547800 (eA*e[5mC]*kA*dT*dG*dG*dA*dA*dG*d[5mC]*dT*dA*d[5mC]*kA*kT*e[5mC]; antisense) [compound 547800]” was run?
**A.** 20%

**Q.** “547929 (eA*eG*kA*dT*dG*dG*dT*d[5mC]*d[5mC]*dG*dA*d[5mC]*dA*k[5mC]*kA*e[5mC]; antisense) [compound 547929]” was tested. Which “% inhibition” value [2] did it give?
**A.** 65%

**Q.** With “548404 (eG*eA*kG*d[5mC]*d[5mC]*dT*dT*d[5mC]*d[5mC]*dG*d[5mC]*d[5mC]*dT*k[5mC]*kT*e[5mC]; antisense) [compound 548404]” as the substance, how does the “% inhibition” value [5] read?
**A.** 37%

**Q.** With “548317 (e[5mC]*e[5mC]*kG*dG*dG*dA*dA*dA*dG*dA*d[5mC]*dT*dG*kT*k[5mC]*eT; antisense) [compound 548317]” as the substance, how does the “% inhibition” value [10] read?
**A.** 42%

**Q.** “547874 (antisense eA*e[5mC]*kT*dG*d[5mC]*dT*dA*dA*d[5mC]*d[5mC]*dT*dT*dA*kG*kA*e[5mC]) [compound 547874]” was tested. Which “% inhibition” value [7] did it give?
**A.** 70%

**Q.** What about the “% inhibition” value [8] of the same substance?
**A.** 60%

**Q.** With “548635 (antisense eA*eG*kG*dT*dG*dT*dG*dG*d[5mC]*dG*d[5mC]*dG*d[5mC]*kG*k[5mC]*e[5mC]) [compound 548635]” as the substance, how does the “% inhibition” value [11] read?
**A.** 18%

**Q.** With “548640 (antisense eG*eA*kA*dT*dG*dT*dT*dG*d[5mC]*dT*dG*dT*d[5mC]*k[5mC]*k[5mC]*eA) [compound 548640]” as the substance, how does the “% inhibition” value [11] read?
**A.** 32%

**Q.** With “548237 (eG*eT*kA*dT*dA*d[5mC]*dA*dT*d[5mC]*dT*dA*dG*dA*kT*kG*eA; antisense) [compound 548237]” as the substance, how does the “% inhibition” value [12] read?
**A.** 22%

**Q.** With “548295 (e[5mC]*eT*k[5mC]*dT*dG*dA*dT*dT*dG*dG*dG*dT*d[5mC]*kA*k[5mC]*e[5mC]; antisense) [compound 548295]” as the substance, how does the “% inhibition” value [12] read?
**A.** 26%

**Q.** Which “% inhibition” value [10] does the source give for “548349 (antisense eT*e[5mC]*k[5mC]*dA*dG*dA*dA*dT*dA*d[5mC]*dT*dG*d[5mC]*k[5mC]*k[5mC]*e[5mC]) [compound 548349]” here?
**A.** 61%

**Q.** Which “% inhibition” value [3] does the source give for “548552 (antisense eT*eG*kG*dA*dG*dG*dA*dG*dT*dA*dG*dG*dG*kA*kA*eT) [compound 548552]” here?
**A.** 10%

**Q.** With “548433 (antisense eT*eA*kT*d[5mC]*dA*d[5mC]*dT*dG*dT*dA*d[5mC]*d[5mC]*dT*kA*kT*eA) [compound 548433]” as the substance, how does the “% inhibition” value [5] read?
**A.** 33%

**Q.** “548371 (e[5mC]*eG*kA*dT*dG*dA*dG*dT*dT*dG*dG*dG*d[5mC]*kA*kG*eG; antisense) [compound 548371]” was tested. Which “% inhibition” value [10] did it give?
**A.** 57%

**Q.** With “548018 (e[5mC]*e[5mC]*kA*dA*dG*dA*dA*dG*dA*dG*dT*dT*dT*kG*kT*eT; antisense) [compound 548018]” as the substance, how does the “% inhibition” value [1] read?
**A.** 22%

**Q.** How did the “% inhibition” value [9] turn out when “547831 (e[5mC]*eT*kG*d[5mC]*dA*d[5mC]*d[5mC]*dT*dG*dT*dT*d[5mC]*dG*kA*kT*eG; antisense) [compound 547831]” was run?
**A.** 49%

**Q.** With “548274 (antisense eT*eA*k[5mC]*d[5mC]*dT*dG*dA*d[5mC]*dA*dA*dG*dT*dG*kG*kT*e[5mC]) [compound 548274]” as the substance, how does the “% inhibition” value [12] read?
**A.** 0%

**Q.** What does the source list for “547894 (eG*eG*k[5mC]*dA*dA*dT*dT*dG*dT*dT*d[5mC]*d[5mC]*dG*kG*kT*eA; antisense) [compound 547894]”?
**A.** % inhibition [7]: 92%; % inhibition [8]: 91%

**Q.** With “548169 (eG*eT*kT*dG*d[5mC]*dG*dA*d[5mC]*d[5mC]*dT*d[5mC]*dG*d[5mC]*kA*kT*eT; antisense) [compound 548169]” as the substance, how does the “% inhibition” value [4] read?
**A.** 7%

**Q.** Which “% inhibition” value [11] does the source give for “548654 (antisense eA*e[5mC]*k[5mC]*dA*dT*dT*d[5mC]*d[5mC]*dT*dG*dA*d[5mC]*d[5mC]*kA*kT*eG) [compound 548654]” here?
**A.** 34%

**Q.** Which results are given for “547872 (antisense eT*eG*k[5mC]*dT*dA*dA*d[5mC]*d[5mC]*dT*dT*dA*dG*dA*k[5mC]*kA*e[5mC]) [compound 547872]”?
**A.** % inhibition [7]: 85%; % inhibition [8]: 73%

**Q.** How did the “% inhibition” value (Table 19, HepaRG cells, electroporation with 1,000 nM antisense oligonucleotide, approximately 24 hours, PKK mRNA by RT-PCR (RTS3454), relative to untreated control cells) turn out when “548126 (eT*eG*k[5mC]*d[5mC]*dT*dA*dG*dA*d[5mC]*dT*d[5mC]*dT*dG*kG*kA*e[5mC]; antisense) [compound 548126]” was run?
**A.** 19%

**Q.** With “548677 (antisense eT*e[5mC]*kA*d[5mC]*d[5mC]*dT*dG*dT*dG*dA*dG*dT*dA*kA*k[5mC]*e[5mC]) [compound 548677]” as the substance, how does the “% inhibition” value [11] read?
**A.** 40%

**Q.** For “548497 (antisense e[5mC]*e[5mC]*kT*dT*d[5mC]*dA*dT*dA*d[5mC]*d[5mC]*d[5mC]*d[5mC]*dT*k[5mC]*kA*e[5mC]) [compound 548497]”, which “% inhibition” value [6] is on record?
**A.** 26%

**Q.** How did the “% inhibition” value [4] turn out when “548226 (eT*eA*kA*dG*dT*d[5mC]*dA*d[5mC]*d[5mC]*dA*dT*dA*dG*kA*k[5mC]*e[5mC]; antisense) [compound 548226]” was run?
**A.** 39%

From patent publication US11840686B2, “Modulation of prekallikrein (PKK) expression” (Ionis Pharmaceuticals, Inc., priority 2013, dated 2023)
